Results from US20230355626A1, “INHIBITORS OF HUMAN IMMUNODEFICIENCY VIRUS REPLICATION” (VIIV HEALTHCARE UK (NO.5) LIMITED, priority 2020, published 2023).

Columns and labels:
[1] = Compound cytotoxicity, XTT-based colorimetric assay; format: cell-based; conditions: human; uninfected MT2 cells, day 4, XTT assay
Protocol: Compound cytotoxicity and the corresponding CC50 values were determined using the same protocol as described in the antiviral assay except that uninfected cells were used. Cytotoxicity was assessed on day 4 in uninfected MT2 cells by using an XTT (2,3-bis[2-Methoxy-4-nitro-5-sulfophenyl]-2H-tetrazolium-5-carboxyanilide inner salt)-based colorimetric assay (Sigma-Aldrich, St Louis, Mo).

recombinant NL4-3 virus = assay: HIV cell culture assay (antiviral activity, luciferase readout in infected MT-2 cells); format: cell-based; conditions: Human immunodeficiency virus 1, NL43, MT2
Protocol: HIV cell culture assay—MT-2 cells, 293T cells and the proviral DNA clone of NL4-3 virus were obtained from the NIH AIDS Research and Reference Reagent Program. MT-2 cells were propagated in RPMI 1640 media supplemented with 10% heat inactivated fetal bovine serum (FBS), 100 μg/ml penicillin G and up to 100 units/mL streptomycin. The 293T cells were propagated in DMEM media supplemented with 10% heat inactivated FBS, 100 μg/mL penicillin G and 100 μg/mL streptomycin. A recombinant NL4-3 proviral clone, in which a section of the nef gene was replaced with the Renilla luciferase gene, was used to make the reference virus used in these studies. The recombinant virus was prepared through transfection of the recombinant NL4-3 proviral clone into 293T cells using Transit-293 Transfection Reagent from Mirus Bio LLC (Madison, WI). Supernatant was harvested after 2-3 days and the amount of virus present was titered in MT-2 cells using luciferase enzyme activity as a marker by measuring luciferase enzyme activity. Luciferase was quantitated using the EnduRen Live Cell Substrate from Promega (Madison, WI). Antiviral activities of compounds toward the recombinant virus were quantified by measuring luciferase activity in MT-2 cells infected for 4-5 days with the recombinant virus in the presence of serial dilutions of the compound.
The 50% effective concentration (EC50) was calculated by using the exponential form of the median effect equation where (Fa)=1/[1+(ED50/drug conc.)m] (Johnson VA, Byington RT. Infectivity Assay. In Techniques in HIV Research. ed. Aldovini A, Walker BD. 71-76. New York: Stockton Press.1990). Curve fitting and analysis were performed with ActivityBase XE Runner software version 9.1.0.4 using model 203 (ID Business Solutions, LTD, Guildford, UK).

| SMILES | CC50 at 4 day [1] | EC50 (recombinant NL4-3 virus) |
| --- | --- | --- |
| Cn1nc(NS(C)(=O)=O)c2c(Cl)ccc(-n3c([C@H](Cc4cc(F)cc(F)c4)NC(=O)Cn4nc(C(F)F)c5c4C(F)(F)[C@@H]4C[C@H]54)nc4nc(OCC5(C(F)(F)F)CC5)ccc4c3=O)c21 (atropisomer, axis not shown; (P)) [Example 21, N-((S)-1-((3P)-3-(4-chloro-1-methyl-3-(methylsulfonamido)-1H-indazol-7-yl)-4-oxo-7-((1-(trifluoromethyl)cyclopropyl)methoxy)-3,4-dihydropyrido[2,3-d]pyrimidin-2-yl)-2-(3,5-difluorophenyl)ethyl)-2-((3bS,4aR)-3-(difluoromethyl)-5,5-difluoro-3b,4,4a,5-tetrahydro-1H-cyclopropa[3,4]cyclopenta[1,2-c]pyrazol-1-yl)acetamide] | > 500 nM | 0.046 nM |
| Cn1nc(NS(C)(=O)=O)c2c(Cl)ccc(-n3c([C@H](Cc4cc(F)cc(F)c4)NC(=O)Cn4nc(C(F)F)c5c4C(F)(F)[C@@H]4C[C@H]54)nc4nc(OCc5cccc(C(F)(F)F)n5)ccc4c3=O)c21 (atropisomer, axis not shown; (P)) [Example 22, N-((S)-1-((3P)-3-(4-chloro-1-methyl-3-(methylsulfonamido)-1H-indazol-7-yl)-4-oxo-7-((6-(trifluoromethyl)pyridin-2-yl)methoxy)-3,4-dihydropyrido[2,3-d]pyrimidin-2-yl)-2-(3,5-difluorophenyl)ethyl)-2-((3bS,4aR)-3-(difluoromethyl)-5,5-difluoro-3b,4,4a,5-tetrahydro-1H-cyclopropa[3,4]cyclopenta[1,2-c]pyrazol-1-yl)acetamide] | > 100 nM | 0.055 nM |
| Cn1nc(NS(C)(=O)=O)c2c(Cl)ccc(-n3c([C@H](Cc4cc(F)cc(F)c4)NC(=O)Cn4nc(C(F)F)c5c4C(F)(F)[C@@H]4C[C@H]54)nc4nc(OCc5nc(C(F)(F)F)cs5)ccc4c3=O)c21 (atropisomer, axis not shown; (P)) [Example 23, N-((S)-1-((3P)-3-(4-chloro-1-methyl-3-(methylsulfonamido)-1H-indazol-7-yl)-4-oxo-7-((4-(trifluoromethyl)thiazol-2-yl)methoxy)-3,4-dihydropyrido[2,3-d]pyrimidin-2-yl)-2-(3,5-difluorophenyl)ethyl)-2-((3bS,4aR)-3-(difluoromethyl)-5,5-difluoro-3b,4,4a,5-tetrahydro-1H-cyclopropa[3,4]cyclopenta[1,2-c]pyrazol-1-yl)acetamide] | > 100 nM | 0.1 nM |
| Cn1nc(NS(C)(=O)=O)c2c(Cl)ccc(-n3c([C@H](Cc4cc(F)cc(F)c4)NC(=O)Cn4nc(C(F)F)c5c4C(F)(F)[C@@H]4C[C@H]54)nc4nc(OCc5ccn(CC(F)(F)F)n5)ccc4c3=O)c21 (atropisomer, axis not shown; (P)) [Example 24, N-((S)-1-((3P)-3-(4-chloro-1-methyl-3-(methylsulfonamido)-1H-indazol-7-yl)-4-oxo-7-((1-(2,2,2-trifluoroethyl)-1H-pyrazol-3-yl)methoxy)-3,4-dihydropyrido[2,3-d]pyrimidin-2-yl)-2-(3,5-difluorophenyl)ethyl)-2-((3bS,4aR)-3-(difluoromethyl)-5,5-difluoro-3b,4,4a,5-tetrahydro-1H-cyclopropa[3,4]cyclopenta[1,2-c]pyrazol-1-yl)acetamide] | > 100 nM | 0.057 nM |
| Cn1nc(NS(C)(=O)=O)c2c(Cl)ccc(-n3c([C@H](Cc4cc(F)cc(F)c4)NC(=O)Cn4nc(C(F)F)c5c4C(F)(F)[C@@H]4C[C@H]54)nc4nc(OCCNCC(F)(F)F)ccc4c3=O)c21 (atropisomer, axis not shown; (P)) [Example 25, N-((S)-1-((3P)-3-(4-chloro-1-methyl-3-(methylsulfonamido)-1H-indazol-7-yl)-4-oxo-7-(2-((2,2,2-trifluoroethyl)amino)ethoxy)-3,4-dihydropyrido[2,3-d]pyrimidin-2-yl)-2-(3,5-difluorophenyl)ethyl)-2-((3bS,4aR)-3-(difluoromethyl)-5,5-difluoro-3b,4,4a,5-tetrahydro-1H-cyclopropa[3,4]cyclopenta[1,2-c]pyrazol-1-yl)acetamide] | > 100 nM | 0.057 nM |
| Cn1nc(NS(C)(=O)=O)c2c(Cl)ccc(-n3c([C@H](Cc4cc(F)cc(F)c4)NC(=O)Cn4nc(C(F)F)c5c4C(F)(F)[C@@H]4C[C@H]54)nc4nc(OCCOCC(F)(F)F)ccc4c3=O)c21 (atropisomer, axis not shown; (P)) [Example 26, N-((S)-1-((3P)-3-(4-chloro-1-methyl-3-(methylsulfonamido)-1H-indazol-7-yl)-4-oxo-7-(2-(2,2,2-trifluoroethoxy)ethoxy)-3,4-dihydropyrido[2,3-d]pyrimidin-2-yl)-2-(3,5-difluorophenyl)ethyl)-2-((3bS,4aR)-3-(difluoromethyl)-5,5-difluoro-3b,4,4a,5-tetrahydro-1H-cyclopropa[3,4]cyclopenta[1,2-c]pyrazol-1-yl)acetamide] | > 100 nM | 0.024 nM |
| Cn1nc(NS(C)(=O)=O)c2c(Cl)ccc(-n3c([C@H](Cc4cc(F)cc(F)c4)NC(=O)Cn4nc(C(F)F)c5c4C(F)(F)[C@@H]4C[C@H]54)nc4nc(OCC(F)(F)C(F)F)ccc4c3=O)c21 (atropisomer, axis not shown; (P)) [Example 27, N-((S)-1-((3P,3P)-3-(4-chloro-1-methyl-3-(methylsulfonamido)-1H-indazol-7-yl)-4-oxo-7-(2,2,3,3-tetrafluoropropoxy)-3,4-dihydropyrido[2,3-d]pyrimidin-2-yl)-2-(3,5-difluorophenyl)ethyl)-2-((3bS,4aR)-3-(difluoromethyl)-5,5-difluoro-3b,4,4a,5-tetrahydro-1H-cyclopropa[3,4]cyclopenta[1,2-c]pyrazol-1-yl)acetamide] | > 100 nM | 0.022 nM |
| Cn1nc(NS(C)(=O)=O)c2c(Cl)ccc(-n3c([C@H](Cc4cc(F)cc(F)c4)NC(=O)Cn4nc(C(F)F)c5c4C(F)(F)[C@@H]4C[C@H]54)nc4nc(OCc5nccn5C(F)F)ccc4c3=O)c21 (atropisomer, axis not shown; (P)) [Example 28, N-((S)-1-((3P)-3-(4-chloro-1-methyl-3-(methylsulfonamido)-1H-indazol-7-yl)-7-((1-(difluoromethyl)-1H-imidazol-2-yl)methoxy)-4-oxo-3,4-dihydropyrido[2,3-d]pyrimidin-2-yl)-2-(3,5-difluorophenyl)ethyl)-2-((3bS,4aR)-3-(difluoromethyl)-5,5-difluoro-3b,4,4a,5-tetrahydro-1H-cyclopropa[3,4]cyclopenta[1,2-c]pyrazol-1-yl)acetamide] | > 100 nM | 0.87 nM |
| Cn1nc(NS(C)(=O)=O)c2c(Cl)ccc(-n3c([C@H](Cc4cc(F)cc(F)c4)NC(=O)Cn4nc(C(F)F)c5c4C(F)(F)[C@@H]4C[C@H]54)nc4nc(OCCOC(F)F)ccc4c3=O)c21 (atropisomer, axis not shown; (P)) [Example 29, N-((S)-1-((3P)-3-(4-chloro-1-methyl-3-(methylsulfonamido)-1H-indazol-7-yl)-7-(2-(difluoromethoxy)ethoxy)-4-oxo-3,4-dihydropyrido[2,3-d]pyrimidin-2-yl)-2-(3,5-difluorophenyl)ethyl)-2-((3bS,4aR)-3-(difluoromethyl)-5,5-difluoro-3b,4,4a,5-tetrahydro-1H-cyclopropa[3,4]cyclopenta[1,2-c]pyrazol-1-yl)acetamide] | > 100 nM | 0.033 nM |
